# Assay results from the supplement of paper PMC10307832.
# What was measured:
# Test in all cases: relative viability (nuclei count vs DMSO), 5 days (fraction); higher = more cells survive
# [1] = tested on: 201T
# How it was run: (§1)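 One day after seeding in 1536-well plates, lung cancer cell lines were dosed by pin tool. Dosing was either single-drug or a fixed anchor-drug dose plus five library-drug doses (not always all listed) in √10 steps. After 5 days, nuclei were stained in one fix-and-stain step and counted on 4× images, and relative viability is the nuclei count of treated wells over that of vehicle wells, given as the median of duplicate plates.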
# [2] = tested on: BEN
# How it was run: as §1
# [3] = tested on: EMC-BAC-2
# How it was run: as §1
# [4] = tested on: HARA
# How it was run: as §1
# [5] = tested on: HCC-44
# How it was run: as §1
# [6] = tested on: LCLC-103H
# How it was run: as §1
# [7] = tested on: LOU-NH91
# How it was run: as §1
# [8] = tested on: NCI-H1395
# How it was run: as §1
# [9] = tested on: NCI-H1993
# How it was run: as §1
# [10] = tested on: NCI-H2023
# How it was run: as §1
# [11] = tested on: NCI-H2087
# How it was run: as §1
# [12] = tested on: NCI-H2126
# How it was run: as §1
# [13] = tested on: NCI-H2347
# How it was run: as §1
# [14] = tested on: NCI-H23
# How it was run: as §1
# [15] = tested on: NCI-H3122
# How it was run: as §1
# [16] = tested on: NCI-H441
# How it was run: as §1
# [17] = tested on: NCI-H596
# How it was run: as §1
# [18] = tested on: NCI-H647
# How it was run: as §1
# [19] = tested on: NCI-H650
# How it was run: as §1
# [20] = tested on: NCI-H727
# How it was run: as §1
# [21] = tested on: NCI-H838
# How it was run: as §1
smiles,measurement,setting,value
Cc1sc2c(c1C)C(c1ccc(Cl)cc1)=N[C@@H](CC(=O)OC(C)(C)C)c1nnc(C)n1-2 [JQ1] + CS(=O)(=O)N1CCN(Cc2cc3nc(-c4cccc5[nH]ncc45)nc(N4CCOCC4)c3s2)CC1 [Pictilisib] (partner 1 µM),relative viability,[1]; first compound 0.04 µM,0.656
same,relative viability,[1]; first compound 0.1265 µM,0.644
same,relative viability,[1]; first compound 0.4 µM,0.519
same,relative viability,[1]; first compound 1.265 µM,0.474
same,relative viability,[1]; first compound 4 µM,0.399
same,relative viability,[2]; first compound 0.04 µM,0.481
same,relative viability,[2]; first compound 0.1265 µM,0.486
same,relative viability,[2]; first compound 0.4 µM,0.461
same,relative viability,[2]; first compound 1.265 µM,0.272
same,relative viability,[2]; first compound 4 µM,0.205
same,relative viability,[3]; first compound 0.04 µM,0.551
same,relative viability,[3]; first compound 0.1265 µM,0.499
same,relative viability,[3]; first compound 0.4 µM,0.565
same,relative viability,[3]; first compound 1.265 µM,0.27
same,relative viability,[3]; first compound 4 µM,0.26
same,relative viability,[4]; first compound 0.04 µM,0.505
same,relative viability,[4]; first compound 0.1265 µM,0.224
same,relative viability,[4]; first compound 0.4 µM,0.379
same,relative viability,[4]; first compound 1.265 µM,0.177
same,relative viability,[4]; first compound 4 µM,0.0809
same,relative viability,[5]; first compound 0.04 µM,0.623
same,relative viability,[5]; first compound 0.1265 µM,0.498
same,relative viability,[5]; first compound 0.4 µM,0.532
same,relative viability,[5]; first compound 1.265 µM,0.294
same,relative viability,[5]; first compound 4 µM,0.213
same,relative viability,[6]; first compound 0.04 µM,0.571
same,relative viability,[6]; first compound 0.1265 µM,0.522
same,relative viability,[6]; first compound 0.4 µM,0.537
same,relative viability,[6]; first compound 1.265 µM,0.4
same,relative viability,[6]; first compound 4 µM,0.352
same,relative viability,[7]; first compound 0.04 µM,0.529
same,relative viability,[7]; first compound 0.1265 µM,0.545
same,relative viability,[7]; first compound 0.4 µM,0.463
same,relative viability,[7]; first compound 1.265 µM,0.419
same,relative viability,[7]; first compound 4 µM,0.354
same,relative viability,[8]; first compound 0.04 µM,0.652
same,relative viability,[8]; first compound 0.1265 µM,0.582
same,relative viability,[8]; first compound 0.4 µM,0.62
same,relative viability,[8]; first compound 1.265 µM,0.403
same,relative viability,[8]; first compound 4 µM,0.407
same,relative viability,[9]; first compound 0.04 µM,0.883
same,relative viability,[9]; first compound 0.1265 µM,0.788
same,relative viability,[9]; first compound 0.4 µM,0.888
same,relative viability,[9]; first compound 1.265 µM,0.635
same,relative viability,[9]; first compound 4 µM,0.846
same,relative viability,[10]; first compound 0.04 µM,0.234
same,relative viability,[10]; first compound 0.1265 µM,0.268
same,relative viability,[10]; first compound 0.4 µM,0.196
same,relative viability,[10]; first compound 1.265 µM,0.161
same,relative viability,[10]; first compound 4 µM,0.156
same,relative viability,[11]; first compound 0.04 µM,0.792
same,relative viability,[11]; first compound 0.4 µM,1.05
same,relative viability,[11]; first compound 1.265 µM,0.318
same,relative viability,[11]; first compound 4 µM,0.384
same,relative viability,[12]; first compound 0.04 µM,0.484
same,relative viability,[12]; first compound 0.1265 µM,0.473
same,relative viability,[12]; first compound 0.4 µM,0.435
same,relative viability,[12]; first compound 1.265 µM,0.37
same,relative viability,[12]; first compound 4 µM,0.349
same,relative viability,[13]; first compound 0.04 µM,0.791
same,relative viability,[13]; first compound 0.1265 µM,0.529
same,relative viability,[13]; first compound 0.4 µM,0.542
same,relative viability,[13]; first compound 1.265 µM,0.334
same,relative viability,[13]; first compound 4 µM,0.372
same,relative viability,[14]; first compound 0.04 µM,0.46
same,relative viability,[14]; first compound 0.1265 µM,0.453
same,relative viability,[14]; first compound 0.4 µM,0.447
same,relative viability,[14]; first compound 1.265 µM,0.162
same,relative viability,[14]; first compound 4 µM,0.183
same,relative viability,[15]; first compound 0.04 µM,0.576
same,relative viability,[15]; first compound 0.1265 µM,0.624
same,relative viability,[15]; first compound 0.4 µM,0.675
same,relative viability,[15]; first compound 1.265 µM,0.425
same,relative viability,[15]; first compound 4 µM,0.445
same,relative viability,[16]; first compound 0.04 µM,0.475
same,relative viability,[16]; first compound 0.1265 µM,0.561
same,relative viability,[16]; first compound 0.4 µM,0.38
same,relative viability,[16]; first compound 1.265 µM,0.234
same,relative viability,[16]; first compound 4 µM,0.195
same,relative viability,[17]; first compound 0.04 µM,0.412
same,relative viability,[17]; first compound 0.1265 µM,0.395
same,relative viability,[17]; first compound 0.4 µM,0.477
same,relative viability,[17]; first compound 1.265 µM,0.365
same,relative viability,[17]; first compound 4 µM,0.293
same,relative viability,[18]; first compound 0.04 µM,0.428
same,relative viability,[18]; first compound 0.1265 µM,0.3
same,relative viability,[18]; first compound 0.4 µM,0.305
same,relative viability,[18]; first compound 1.265 µM,0.188
same,relative viability,[18]; first compound 4 µM,0.15
same,relative viability,[19]; first compound 0.04 µM,0.746
same,relative viability,[19]; first compound 0.1265 µM,0.654
same,relative viability,[19]; first compound 0.4 µM,0.499
same,relative viability,[19]; first compound 1.265 µM,0.283
same,relative viability,[19]; first compound 4 µM,0.273
same,relative viability,[20]; first compound 0.04 µM,0.371
same,relative viability,[20]; first compound 0.1265 µM,0.554
same,relative viability,[20]; first compound 0.4 µM,0.205
same,relative viability,[20]; first compound 1.265 µM,0.233
same,relative viability,[20]; first compound 4 µM,0.309
same,relative viability,[21]; first compound 0.04 µM,0.397
same,relative viability,[21]; first compound 0.1265 µM,0.3
same,relative viability,[21]; first compound 0.4 µM,0.319
same,relative viability,[21]; first compound 1.265 µM,0.208
same,relative viability,[21]; first compound 4 µM,0.232
